In PubChem BioAssay AID1918956 (Molecular Pharmacology Branch, DTP, NCI, 2023):
“And” between values parts separate entries of the source, which are not always exact repeats. Identical values can stand only once. One block for each compound: values may come before it.

System: OVCAR-5 complex spheroids, viability
Experiment: Anticancer human tumor OVCAR-5 cell line growth inhibition;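 also: spheroids exposed to agents for seven days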;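 as to viability, T/C: 100% = DMSO vehicle control wells viability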
Conditions: for viability, T/C: stronger effect = lower value
In short: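 Multicellular complex spheroids of tumor cells with human endothelial cells (HUVEC) and mesenchymal stem cells; the LSD1 inhibitor iadademstat was combined with standard-of-care or investigational agents. Top concentration at or near clinical Cmax, half-log dilutions; final DMSO ≤0.25%.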

[1] = curve of first compound, second compound 0.1 µM
[2] = curve of first compound, second compound 0.316 µM
[3] = curve of first compound, second compound 1 µM
[4] = curve of first compound, second compound 3.16 µM
[5] = curve of first compound, second compound 10 µM
[6] = second compound 0.1 µM, first compound 0.0316 µM
[7] = second compound 0.1 µM, first compound 0.1 µM
[8] = second compound 0.316 µM, first compound 0.0316 µM
[9] = second compound 0.316 µM, first compound 0.1 µM
[10] = second compound 1 µM, first compound 0.0316 µM
[11] = second compound 1 µM, first compound 0.1 µM
[12] = second compound 3.16 µM, first compound 0.0316 µM
[13] = second compound 3.16 µM, first compound 0.1 µM
[14] = second compound 10 µM, first compound 0.0316 µM
[15] = second compound 10 µM, first compound 0.1 µM

Compound: CC(C)c1c(-c2ccccc2)nc2c(C#N)c[nH]n2c1=O + NC1CC1c1ccc(-c2cccc(O)c2)cc1
IC50 [1]: > 10000 nM
IC50 [2]: > 10000 nM
IC50 [3]: > 10000 nM
IC50 [4]: > 10000 nM
IC50 [5]: > 10000 nM
viability, T/C [6]: 92.2%
viability, T/C [7]: 98.4%
viability, T/C (second compound 0.1 µM, first compound 0.316 µM): 97.4%
viability, T/C (second compound 0.1 µM, first compound 1 µM): 98.4%
viability, T/C (second compound 0.1 µM, first compound 3.16 µM): 99.9%
viability, T/C (second compound 0.1 µM, first compound 10 µM): 107%
viability, T/C [8]: 98%
viability, T/C [9]: 96%
viability, T/C (second compound 0.316 µM, first compound 0.316 µM): 102%
viability, T/C (second compound 0.316 µM, first compound 1 µM): 102%
viability, T/C (second compound 0.316 µM, first compound 3.16 µM): 98%
viability, T/C (second compound 0.316 µM, first compound 10 µM): 108%
viability, T/C [10]: 87%
viability, T/C [11]: 90%
viability, T/C (second compound 1 µM, first compound 0.316 µM): 97.1%
viability, T/C (second compound 1 µM, first compound 1 µM): 105%
viability, T/C (second compound 1 µM, first compound 3.16 µM): 96.1%
viability, T/C (second compound 1 µM, first compound 10 µM): 104%
viability, T/C [12]: 88.3%
viability, T/C [13]: 95.4%
viability, T/C (second compound 3.16 µM, first compound 0.316 µM): 77.8%
viability, T/C (second compound 3.16 µM, first compound 1 µM): 95.6%
viability, T/C (second compound 3.16 µM, first compound 3.16 µM): 88.8%
viability, T/C (second compound 3.16 µM, first compound 10 µM): 98.9%
viability, T/C [14]: 82.2%
viability, T/C [15]: 91%
viability, T/C (second compound 10 µM, first compound 0.316 µM): 80.5%
viability, T/C (second compound 10 µM, first compound 1 µM): 87.5%
viability, T/C (second compound 10 µM, first compound 3.16 µM): 87.7%
viability, T/C (second compound 10 µM, first compound 10 µM): 73.5%

Compound: O=C(C=Cc1cccc(S(=O)(=O)Nc2ccccc2)c1)NO
viability, T/C (compound 0.00949 µM): 89.1% and 94.7%
viability, T/C (compound 0.03 µM): 88.7% and 80.5%
viability, T/C (compound 0.0949 µM): 61.9% and 55.5%
viability, T/C (compound 0.3 µM): 31.6% and 27.4%
viability, T/C (compound 0.949 µM): 15.4% and 10.4%
viability, T/C (compound 3 µM): 4.04% and 2.72%
IC50 (curve of compound): 156 nM and 118 nM

Compound: CC(C)CC(NC(=O)CNC(=O)c1cc(Cl)ccc1Cl)B1OC(=O)CC(CC(=O)O)(C(=O)O)O1 (stereo not drawn) + NC1CC1c1ccc(-c2cccc(O)c2)cc1
IC50 [1]: > 100 nM
IC50 [2]: > 100 nM
IC50 [3]: > 100 nM
IC50 [4]: > 100 nM
IC50 [5]: 99.8 nM
viability, T/C (second compound 0.1 µM, first compound 0.000316 µM): 92.4%
viability, T/C (second compound 0.1 µM, first compound 0.001 µM): 87%
viability, T/C (second compound 0.1 µM, first compound 0.00316 µM): 89.8%
viability, T/C (second compound 0.1 µM, first compound 0.01 µM): 72.1%
viability, T/C [6]: 66.2%
viability, T/C [7]: 55%
viability, T/C (second compound 0.316 µM, first compound 0.000316 µM): 96.6%
viability, T/C (second compound 0.316 µM, first compound 0.001 µM): 92.1%
viability, T/C (second compound 0.316 µM, first compound 0.00316 µM): 80.4%
viability, T/C (second compound 0.316 µM, first compound 0.01 µM): 73.3%
viability, T/C [8]: 74.4%
viability, T/C [9]: 57.5%
viability, T/C (second compound 1 µM, first compound 0.000316 µM): 98%
viability, T/C (second compound 1 µM, first compound 0.001 µM): 91.6%
viability, T/C (second compound 1 µM, first compound 0.00316 µM): 79.3%
viability, T/C (second compound 1 µM, first compound 0.01 µM): 71.1%
viability, T/C [10]: 66.8%
viability, T/C [11]: 53.6%
viability, T/C (second compound 3.16 µM, first compound 0.000316 µM): 79.6%
viability, T/C (second compound 3.16 µM, first compound 0.001 µM): 78.7%
viability, T/C (second compound 3.16 µM, first compound 0.00316 µM): 83.9%
viability, T/C (second compound 3.16 µM, first compound 0.01 µM): 65.8%
viability, T/C [12]: 64.3%
viability, T/C [13]: 51.8%
viability, T/C (second compound 10 µM, first compound 0.000316 µM): 97.1%
viability, T/C (second compound 10 µM, first compound 0.001 µM): 93.3%
viability, T/C (second compound 10 µM, first compound 0.00316 µM): 71.4%
viability, T/C (second compound 10 µM, first compound 0.01 µM): 70.3%
viability, T/C [14]: 64.8%
viability, T/C [15]: 47%

The next lines start with results.

IC50 (curve of compound): 8.4 nM and 6.94 nM
Compound: CC(C)CC(NC(=O)C(Cc1ccccc1)NC(=O)c1cnccn1)B(O)O (stereo not drawn)
viability, T/C (compound 0.000316 µM): 101% and 95.8%
viability, T/C (compound 0.001 µM): 108% and 93.7%
viability, T/C (compound 0.00316 µM): 79.5% and 72.4%
viability, T/C (compound 0.01 µM): 44.7% and 39.4%
viability, T/C (compound 0.0316 µM): 19.9% and 15.4%
viability, T/C (compound 0.1 µM): 10% and 7.18%

IC50 (curve of compound): > 100 nM
Compound: Cn1ncnc1C1c2n[nH]c(=O)c3cc(F)cc(c23)NC1c1ccc(F)cc1 (stereo not drawn)
viability, T/C (compound 0.000316 µM): 96.3% and 102%
viability, T/C (compound 0.001 µM): 91.2% and 102%
viability, T/C (compound 0.00316 µM): 89% and 98.7%
viability, T/C (compound 0.01 µM): 93.4% and 95.9%
viability, T/C (compound 0.0316 µM): 90.2% and 86%
viability, T/C (compound 0.1 µM): 99.8% and 93.8%

IC50 (curve of compound): 1790 nM and 690 nM
Compound: COc1ccc([C@@H](O)c2cc(-c3ncnc4cc(N5CCOCC5)ccc34)c(F)cc2Cl)nn1
viability, T/C (compound 0.0316 µM): 92.1% and 91.6%
viability, T/C (compound 0.1 µM): 91.6% and 84.7%
viability, T/C (compound 0.316 µM): 73.3% and 58.1%
viability, T/C (compound 1 µM): 55.4% and 44.1%
viability, T/C (compound 3.16 µM): 45.3% and 32.7%
viability, T/C (compound 10 µM): 24.9% and 18.4%
